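Assay format: 96-well plates, 48-hour exposure. TGI denotes the concentration required for complete inhibition of growth.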
Columns and labels:
Test in all cases: growth of human tumour cells (NCI), 48 h
786-0 renal = system: 786-0 renal
A549 NSCLC = system: A549 NSCLC
ACHN renal = system: ACHN renal
BT-549 breast = system: BT-549 breast
CAKI-1 renal = system: CAKI-1 renal
CCRF-CEM leukemia = system: CCRF-CEM leukemia
COLO 205 colon = system: COLO 205 colon
DU-145 prostate = system: DU-145 prostate
EKVX NSCLC = system: EKVX NSCLC
HCC-2998 colon = system: HCC-2998 colon
HCT-116 colon = system: HCT-116 colon
HCT-15 colon = system: HCT-15 colon
HL-60(TB) leukemia = system: HL-60(TB) leukemia
HOP-62 NSCLC = system: HOP-62 NSCLC
HOP-92 NSCLC = system: HOP-92 NSCLC
HS 578T breast = system: HS 578T breast
HT29 colon = system: HT29 colon
IGROV1 ovarian = system: IGROV1 ovarian
K-562 leukemia = system: K-562 leukemia
KM12 colon = system: KM12 colon
LOX IMVI melanoma = system: LOX IMVI melanoma
M14 melanoma = system: M14 melanoma
MALME-3M melanoma = system: MALME-3M melanoma
MCF7 breast = system: MCF7 breast
MDA-MB-231 breast = system: MDA-MB-231 breast
MDA-MB-435 = system: MDA-MB-435
MDA-N = system: MDA-N
MOLT-4 leukemia = system: MOLT-4 leukemia
NCI-H226 lung = system: NCI-H226 lung
NCI-H23 lung = system: NCI-H23 lung
NCI-H460 lung = system: NCI-H460 lung
NCI-H522 lung = system: NCI-H522 lung
NCI/ADR-RES ovarian = system: NCI/ADR-RES ovarian
OVCAR-3 ovarian = system: OVCAR-3 ovarian
OVCAR-4 ovarian = system: OVCAR-4 ovarian
OVCAR-5 ovarian = system: OVCAR-5 ovarian
OVCAR-8 ovarian = system: OVCAR-8 ovarian
PC-3 prostate = system: PC-3 prostate
RPMI-8226 leukemia = system: RPMI-8226 leukemia
RXF 393 renal = system: RXF 393 renal
SF-268 CNS = system: SF-268 CNS
SF-295 CNS = system: SF-295 CNS
SF-539 CNS = system: SF-539 CNS
SK-MEL-2 melanoma = system: SK-MEL-2 melanoma
SK-MEL-28 melanoma = system: SK-MEL-28 melanoma
SK-MEL-5 melanoma = system: SK-MEL-5 melanoma
SK-OV-3 ovarian = system: SK-OV-3 ovarian
SN12C renal = system: SN12C renal
SNB-19 CNS = system: SNB-19 CNS
SNB-75 CNS = system: SNB-75 CNS
SR leukemia = system: SR leukemia
SW-620 colon = system: SW-620 colon
T-47D breast = system: T-47D breast
TK-10 renal = system: TK-10 renal
U251 CNS = system: U251 CNS
UACC-257 melanoma = system: UACC-257 melanoma
UACC-62 melanoma = system: UACC-62 melanoma
UO-31 renal = system: UO-31 renal

`Cn1c2ccccc2c(=NNc2ccc(S(N)(=O)=O)cc2)c2ccccc21` showed a TGI (786-0 renal) of over 50 µM, a TGI (A549 NSCLC) of over 50000 nM and a TGI (ACHN renal) of 29 µM. For the same molecule, the TGI (BT-549 breast) was over 50 µM, the TGI (CAKI-1 renal) was over 50 µM and the TGI (CCRF-CEM leukemia) was over 50 µM. It also gave a TGI (COLO 205 colon) of over 50 µM, a TGI (DU-145 prostate) of over 50 µM and a TGI (EKVX NSCLC) of over 50 µM. The TGI (HCC-2998 colon) was 38.7 µM, the TGI (HCT-116 colon) was over 50 µM and the TGI (HCT-15 colon) was over 50 µM. For the same molecule, the TGI (HL-60(TB) leukemia) was 32 µM, the TGI (HOP-62 NSCLC) was over 50 µM and the TGI (HOP-92 NSCLC) was 35.8 µM. For the same molecule, the TGI (HS 578T breast) was over 50 µM, the TGI (HT29 colon) was over 50 µM and the TGI (IGROV1 ovarian) was over 50 µM. The TGI (K-562 leukemia) was 40.4 µM, the TGI (KM12 colon) was over 50 µM and the TGI (LOX IMVI melanoma) was 38.1 µM. It also gave a TGI (M14 melanoma) of over 50 µM, a TGI (MALME-3M melanoma) of 43.2 µM and a TGI (MCF7 breast) of 43.1 µM. It also gave a TGI (MDA-MB-231 breast) of over 50 µM, a TGI (MDA-MB-435) of over 50 µM and a TGI (MDA-N) of over 50 µM. The TGI (MOLT-4 leukemia) was 26.9 µM, the TGI (NCI-H226 lung) was 48.4 µM and the TGI (NCI-H23 lung) was over 50 µM. For the same molecule, the TGI (NCI-H460 lung) was 34.3 µM, the TGI (NCI-H522 lung) was over 50 µM and the TGI (NCI/ADR-RES ovarian) was over 50 µM. For the same molecule, the TGI (OVCAR-3 ovarian) was over 50 µM, the TGI (OVCAR-4 ovarian) was over 50 µM and the TGI (OVCAR-5 ovarian) was over 50 µM. It also gave a TGI (OVCAR-8 ovarian) of over 50 µM, a TGI (PC-3 prostate) of over 50 µM and a TGI (RPMI-8226 leukemia) of over 50 µM. The TGI (RXF 393 renal) was 43.7 µM, the TGI (SF-268 CNS) was over 50 µM and the TGI (SF-295 CNS) was over 50 µM. For the same molecule, the TGI (SF-539 CNS) was over 50000 nM, the TGI (SK-MEL-2 melanoma) was 34.3 µM and the TGI (SK-MEL-28 melanoma) was over 50 µM. The TGI (SK-MEL-5 melanoma) was 22.5 µM, the TGI (SK-OV-3 ovarian) was over 50 µM and the TGI (SN12C renal) was over 50 µM. It also gave a TGI (SNB-19 CNS) of over 50 µM, a TGI (SNB-75 CNS) of 46.6 µM and a TGI (SR leukemia) of 25.6 µM. For the same molecule, the TGI (SW-620 colon) was over 50 µM, the TGI (T-47D breast) was 34.8 µM and the TGI (TK-10 renal) was over 50 µM. It also gave a TGI (U251 CNS) of over 50 µM, a TGI (UACC-257 melanoma) of 49.8 µM and a TGI (UACC-62 melanoma) of over 50 µM. The TGI (UO-31 renal) was 41.1 µM.

Molecule `CCN(CC)CCn1c(=O)c2ccccc2n2c3c(=O)n(C)c(=O)n(C)c3nc12` has a TGI (786-0 renal) of 5.43 µM, a TGI (A549 NSCLC) of 2050 nM and a TGI (ACHN renal) of 1.09 µM. For the same molecule, the TGI (BT-549 breast) was 4.22 µM, the TGI (CAKI-1 renal) was 3.91 µM and the TGI (CCRF-CEM leukemia) was 13.1 µM. For the same molecule, the TGI (COLO 205 colon) was 14.5 µM, the TGI (DU-145 prostate) was 4.47 µM and the TGI (EKVX NSCLC) was 11.7 µM. It also gave a TGI (HCC-2998 colon) of 6.8 µM, a TGI (HCT-116 colon) of 8.71 µM and a TGI (HCT-15 colon) of 66.2 µM. The TGI (HL-60(TB) leukemia) was 2.5 µM, the TGI (HOP-62 NSCLC) was 4.62 µM and the TGI (HOP-92 NSCLC) was 7.85 µM. The TGI (HS 578T breast) was 19.6 µM, the TGI (HT29 colon) was 9.55 µM and the TGI (IGROV1 ovarian) was 23.3 µM. It also gave a TGI (K-562 leukemia) of 19.4 µM, a TGI (KM12 colon) of 6.03 µM and a TGI (LOX IMVI melanoma) of 31.3 µM. For the same molecule, the TGI (M14 melanoma) was 13 µM, the TGI (MALME-3M melanoma) was 10.6 µM and the TGI (MCF7 breast) was 6.2 µM. It also gave a TGI (MDA-MB-231 breast) of 19.3 µM, a TGI (MDA-MB-435) of 15.9 µM and a TGI (MDA-N) of 17.6 µM. For the same molecule, the TGI (MOLT-4 leukemia) was 4.73 µM, the TGI (NCI-H226 lung) was 3.35 µM and the TGI (NCI-H23 lung) was 10.1 µM. The TGI (NCI-H460 lung) was 1.65 µM, the TGI (NCI-H522 lung) was 9 µM and the TGI (NCI/ADR-RES ovarian) was 30.2 µM. It also gave a TGI (OVCAR-3 ovarian) of 16.4 µM, a TGI (OVCAR-4 ovarian) of 23.5 µM and a TGI (OVCAR-5 ovarian) of 7.09 µM. It also gave a TGI (OVCAR-8 ovarian) of 8.06 µM, a TGI (PC-3 prostate) of 20.4 µM and a TGI (RPMI-8226 leukemia) of 5.94 µM. For the same molecule, the TGI (RXF 393 renal) was 34.4 µM, the TGI (SF-268 CNS) was 12.1 µM and the TGI (SF-295 CNS) was 10.1 µM. For the same molecule, the TGI (SF-539 CNS) was 2950 nM, the TGI (SK-MEL-2 melanoma) was 6.61 µM and the TGI (SK-MEL-28 melanoma) was 18.3 µM. For the same molecule, the TGI (SK-MEL-5 melanoma) was 2.94 µM, the TGI (SK-OV-3 ovarian) was 4.77 µM and the TGI (SN12C renal) was 10.2 µM. It also gave a TGI (SNB-19 CNS) of 38.1 µM, a TGI (SNB-75 CNS) of 7.46 µM and a TGI (SR leukemia) of 5.15 µM. The TGI (SW-620 colon) was 16.1 µM, the TGI (T-47D breast) was 20.8 µM and the TGI (TK-10 renal) was 52.5 µM. For the same molecule, the TGI (U251 CNS) was 6.03 µM, the TGI (UACC-257 melanoma) was 16.7 µM and the TGI (UACC-62 melanoma) was 3.22 µM. It also gave a TGI (UO-31 renal) of 6.29 µM.

Source: PubChem BioAssay (NCI)
